Experimental findings from article PMC9667936, “Functional mapping of the 14-3-3 hub protein as a guide to design 14-3-3 molecular glues” (Chemical Science, 2022) are described below.

Molecules are shown by their SMILES. Read-outs that look alike come from different tables or passages of the source. Where a SMILES comes first, the peptide text is derived from it. [ ]: non-standard residue; d: D form. ξ: configuration not given here. Phe(4-NO2) = N[C@@H](Cc1ccc([N+](=O)[O-])cc1)C(=O)O; ξAla(4-thiazolyl) = NC(Cc1cscn1)C(=O)O; pS = N[C@@H](COP(=O)(O)O)C(=O)O; β3hS = N[C@@H](CO)CC(=O)O; Nva = CCC[C@H](N)C(=O)O; βAla = NCCC(=O)O

The assay addresses T1, 14-3-3γ (Homo sapiens, UniProt P61981).
T1 construct: made in house; host or cells: E. coli NiCo21 (DE3)
T1 sequence (P61981 1-247): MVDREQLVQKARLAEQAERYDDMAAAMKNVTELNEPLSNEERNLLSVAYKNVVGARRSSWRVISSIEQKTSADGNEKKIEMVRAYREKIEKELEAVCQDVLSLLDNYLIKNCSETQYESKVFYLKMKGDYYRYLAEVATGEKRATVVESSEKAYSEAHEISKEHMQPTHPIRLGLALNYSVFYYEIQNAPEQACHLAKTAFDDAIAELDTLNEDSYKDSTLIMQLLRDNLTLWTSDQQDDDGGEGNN
Kind of assay: Isothermal titration calorimetry (ITC) of 14-3-3 binding to peptide. Conditions: for ΔG / Kd / ΔH / -TΔS: 25 °C; for Kd: Table S6 (unit as in Table S5). The procedure: 14-3-3γ protein expression (FP/ITC experiments)
A pPROEX HTb expression vector encoding the human 14-3-3 protein gamma (14-3-3γ) with an N-terminal his6-tag was transformed by heat shock into NiCo21 (DE3) competent cells. Single colonies were cultured in 50 mL LB medium (100 µg/mL ampicillin). After overnight incubation at 37 °C, cultures were transferred to 2 L TB media (100 µg/mL ampicillin, 1 mM MgCl2) and incubated at 37 °C until an OD600 nm of 0.8-1.2 was reached. Protein expression was then induced with 0.4 mM isopropyl-β-d-thiogalactoside (IPTG), and cultures were incubated overnight at 18 °C. Cells were harvested by centrifugation (8600 rpm, 20 minutes, 4 °C) and resuspended in lysis buffer (50 mM Hepes, pH 8.0, 300 mM NaCl, 12.5 mM imidazole, 5 mM MgCl2, 2 mM βME) containing cOmplete™ EDTA-free Protease Inhibitor Cocktail tablets (1 tablet/100 ml lysate) and benzonase (1 µl/100 ml). After lysis using a C3 Emulsiflex-C3 homogenizer (Avestin), the cell lysate was cleared by centrifugation (20000 rpm, 30 minutes, 4 °C) and purified using Ni2+-affinity chromatography (Ni-NTA superflow cartridges, Qiagen).
Typically two 5 mL columns (flow 5 mL/min) were used for a 2 L culture in which the lysate was loaded on the column washed with 10 CV wash buffer (50 mM Hepes, pH 8.0, 300 mM NaCl, 25 mM imidazole, 2 mM βME) and eluted in several fractions (2-4 CV) of elution buffer (50 mM Hepes, pH 8.0, 300 mM NaCl, 250 mM imidazole, 2 mM βME). Fractions containing the 14-3-3 protein were combined and dialyzed into 25 mM HEPES pH 8.0, 100 mM NaCl, 10 mM MgCl2, 500 µM TCEP. […]
The peptides 1 and 2a-d were synthesized on 50 µmol scale on a Rink amide MBHA resin (Novabiochem, 0.52 mmol/g loading) using an automated Intavis MultiPep RSi peptide synthesizer.
Deprotection was performed twice per cycle with 20% v/v piperidine in DMF for 8 minutes. Fmoc-protected amino acids were mixed in 5 equivalents of HBTU and 9 equivalents of DIPEA in DMF, and coupled to the resin. With the exception of phosphoserine, which was coupled once for 60 minutes, all amino acids were coupled to the resin twice for 30 minutes. Capping of unreacted amino acids was performed with a mixture of acetic anhydride/pyridine/DMF (1:1:3) for 5 minutes. βAla was incorporated as a spacer between the sequence and Lys(Alloc), to which a FITC fluorophore will be coupled for fluorescence anisotropy studies.
The peptides 1 and 2e-i were synthesized manually on a 50 µmol scale using Rink amide MBHA resin (Novabiochem, 0.52 mmol/g loading) via Fmoc based solid phase peptide synthesis. […]
(lex: 485 ± 20 nm; lem: 535 ± 25 nm; mirror: Dichroic 510; flashes: 20; integration time: 50 ms; settle time:
0 ms; gain: optimal; and Z-position: calculated from well). […]
Data was obtained and averaged based on two
To determine the cooperativity parameters from the 2D-titration of 14-3-3/ChREBP/2d (as described above) we have used the general framework for straightforward model construction of multi-component thermodynamic equilibrium systems as described by Geertjens et al. (2021).10 This general platform generates a model to describe multi-component equilibrium systems when given a system description.
In our case we gave the following system description: […]
α (with 95% confidence interval) and the error-landscape of the determine parameters.
Fluorescence anisotropy (FA) – Selectivity study: Peptides representing 14-3-3 binding partners (including ChREBP) were titrated in a 2-fold dilution series (starting at 100 µM) to 20 nM of fluorescein-labeled peptide 2d in presence and absence of, respectively, 2 µM 14-3-3γ in FA buffer (10 mM HEPES pH 7.4, 150 mM NaCl, 0.1% (v/v) Tween20, 0.1% (w/v) BSA). Dilution series were made in a polystyrene (non-binding) low-volume Corning Black Round Bottom 384-well plates (Corning 4514 or 4511).
Measurements were performed directly after plate preparation, using a Tecan Infinite F500 plate reader at room temperature (lex: 485 ± 20 nm; lem: 535 ± 25 nm; mirror: Dichroic 510; flashes: 20; integration […]

[1] abbreviates: Table S5, ITC Kd / Kd of peptide 1, first unlabelled line (replicate 1).
[2] abbreviates: Table S5, ITC Kd / Kd of peptide 1, second unlabelled line (replicate 2).
Where [3] appears, read: Table S5, ITC Kd of peptide divided by Kd of peptide 1, mean of n = 2.
[4] abbreviates: Table S5, ΔG minus ΔG of peptide 1, ITC, first unlabelled line (replicate 1).
The mark [5] stands for this setting: Table S5, ΔG minus ΔG of peptide 1, ITC, second unlabelled line (replicate 2).
[6] abbreviates: Table S5, ΔG of peptide minus ΔG of peptide 1, ITC, mean of n = 2.
Setting [7] is: ITC, average of two runs, read-out: Kd.
Setting [8] is: Table S6 (unit given in Fig. 4 legend), ITC, average of two runs.
[9] abbreviates: Table S6, ITC, average of two runs.

For the molecule `CCC[C@H](NC(=O)[C@H](N)CCCCN)C(=O)N[C@@H](Cc1ccc([N+](=O)[O-])cc1)C(=O)N[C@@H](C)C(=O)N[C@@H](COP(=O)(O)O)C(=O)N[C@@H](Cc1ccc([N+](=O)[O-])cc1)C(=O)N[C@@H](CO)CC(=O)NCCC(=O)N[C@@H](Cc1ccc([N+](=O)[O-])cc1)C(=O)N[C@@H](CCCCN)C(N)=O` [3a] (H-[dK][Nva][Phe(4-NO2)]A[pS][Phe(4-NO2)][β3hS][βAla][Phe(4-NO2)]K-NH2; N-terminus and C-terminus assumed), the “Fold change to 1” value under setting [1] worked out at 2.0, the “Fold change to 1” value under setting [2] was 1.5 and the “Fold change to 1” value under setting [3] is reported as 1.8. Further, the ΔG runs as follows: (Table S5, ITC, mean of n = 2) -9.7 kcal/mol; (Table S5, ITC, replicate 1) -9.6 kcal/mol; (Table S5, ITC, replicate 2) -9.8 kcal/mol; under setting [9], -9,69 kcal mol^-1; (Table S6, ITC, run 1) -9,622 kcal mol^-1; (Table S6, ITC, run 2) -9,764 kcal mol^-1. Also, the “ΔΔG to 1” value runs as follows: under setting [4], 0.4 kcal/mol; under setting [5], 0.3 kcal/mol; under setting [6], 0.3 kcal/mol. For the same molecule, the Kd under setting [7] came to 79.1 nM; the Kd (ITC, run 1) is 8,86E-08 M; the Kd (ITC, run 2) was 6,97E-08 M. Also, the ΔH was -7,40 kcal mol^-1 under setting [8]; -7,998 kcal mol^-1 (Table S6, ITC, run 1); -6,809 kcal mol^-1 (Table S6, ITC, run 2). Also, the “-TΔS” value by setting is: under setting [9], -2,29 kcal mol^-1; (Table S6, ITC, run 1) -1,624 kcal mol^-1; (Table S6, ITC, run 2) -2,955 kcal mol^-1.

On to `CCC[C@H](NC(=O)[C@H](N)CCCCN)C(=O)N[C@@H](Cc1ccc([N+](=O)[O-])cc1)C(=O)NC(Cc1cscn1)C(=O)N[C@@H](COP(=O)(O)O)C(=O)N[C@@H](Cc1ccc(O)cc1)C(=O)N[C@@H](CO)CC(=O)NCCC(=O)N[C@@H](Cc1ccc([N+](=O)[O-])cc1)C(=O)N[C@@H](CCCCN)C(N)=O` (stereo partly drawn) [4a] (H-[dK][Nva][Phe(4-NO2)][ξAla(4-thiazolyl)][pS]Y[β3hS][βAla][Phe(4-NO2)]K-NH2; N-terminus and C-terminus assumed), for which the “Fold change to 1” value runs as follows: under setting [1], 2.8; under setting [2], 1.3; under setting [3], 2.1. The ΔG by setting is: (Table S5, ITC, mean of n = 2) -9.6 kcal/mol; (Table S5, ITC, replicate 1) -9.4 kcal/mol; (Table S5, ITC, replicate 2) -9.8 kcal/mol; under setting [9], -9,63 kcal mol^-1; (Table S6, ITC, run 1) -9,411 kcal mol^-1; (Table S6, ITC, run 2) -9,844 kcal mol^-1. The “ΔΔG to 1” value came to 0.6 kcal/mol under setting [4], 0.2 kcal/mol under setting [5] and 0.4 kcal/mol under setting [6]. Further, the equilibrium dissociation constant (Kd) is 93.6 nM under setting [7]; 1,26E-07 M (ITC, run 1); 6,09E-08 M (ITC, run 2). For the same molecule, the ΔH is given as -6,64 kcal mol^-1 under setting [8]; -5,83 kcal mol^-1 (Table S6, ITC, run 1); -7,45 kcal mol^-1 (Table S6, ITC, run 2). The “-TΔS” value under setting [9] is -2,99 kcal mol^-1; the “-TΔS” value (Table S6, ITC, run 1) is listed as -3,582 kcal mol^-1; the “-TΔS” value (Table S6, ITC, run 2) is given as -2,393 kcal mol^-1.

Take `CCC[C@H](NC(=O)[C@H](N)CCCCN)C(=O)N[C@@H](Cc1ccc([N+](=O)[O-])cc1)C(=O)NC(Cc1cscn1)C(=O)N[C@@H](COP(=O)(O)O)C(=O)N[C@@H](Cc1ccccc1)C(=O)N[C@@H](CO)CC(=O)NCCC(=O)N[C@@H](Cc1ccc([N+](=O)[O-])cc1)C(=O)N[C@@H](CCCCN)C(N)=O` (stereo partly drawn) [4b] (H-[dK][Nva][Phe(4-NO2)][ξAla(4-thiazolyl)][pS]F[β3hS][βAla][Phe(4-NO2)]K-NH2; N-terminus and C-terminus assumed): the “Fold change to 1” value is listed as 0.6 under setting [1], 0.8 under setting [2] and 0.7 under setting [3]. The ΔG by setting is: (Table S5, ITC, mean of n = 2) -10.2 kcal/mol; (Table S5, ITC, replicate 1) -10.3 kcal/mol; (Table S5, ITC, replicate 2) -10.1 kcal/mol; under setting [9], -10,24 kcal mol^-1; (Table S6, ITC, run 1) -10,34 kcal mol^-1; (Table S6, ITC, run 2) -10,13 kcal mol^-1. In addition, the “ΔΔG to 1” value is listed as -0.3 kcal/mol under setting [4], -0.1 kcal/mol under setting [5] and -0.2 kcal/mol under setting [6]. For the same molecule, the Kd runs as follows: under setting [7], 31.9 nM; (ITC, run 1) 2,62E-08 M; (ITC, run 2) 3,76E-08 M. Moreover, the ΔH under setting [8] is on record as -7,40 kcal mol^-1; the ΔH (Table S6, ITC, run 1) is given as -8,024 kcal mol^-1; the ΔH (Table S6, ITC, run 2) is listed as -6,783 kcal mol^-1. In addition, the “-TΔS” value by setting is: under setting [9], -2,87 kcal mol^-1; (Table S6, ITC, run 1) -2,391 kcal mol^-1; (Table S6, ITC, run 2) -3,345 kcal mol^-1.

For `CCC[C@H](NC(=O)[C@H](N)CCCCN)C(=O)N[C@@H](Cc1ccc([N+](=O)[O-])cc1)C(=O)NC(Cc1cscn1)C(=O)N[C@@H](COP(=O)(O)O)C(=O)N[C@@H](C)C(=O)N[C@@H](CO)CC(=O)NCCC(=O)N[C@@H](Cc1ccc([N+](=O)[O-])cc1)C(=O)N[C@@H](CCCCN)C(N)=O` (stereo partly drawn) [4c] (H-[dK][Nva][Phe(4-NO2)][ξAla(4-thiazolyl)][pS]A[β3hS][βAla][Phe(4-NO2)]K-NH2; N-terminus and C-terminus assumed), the “ΔΔG of point mutation (ITC)” value (ITC, relative to 1, mean ± SD, SD) worked out at 1.7 ± 0.1 kcal/mol. For the same molecule, the “Fold change to 1” value is given as 15.0 under setting [1] and 18.9 under setting [2]. In addition, the ΔG is recorded as -8.3 kcal/mol (Table S5, ITC, mean of n = 2); -8.4 kcal/mol (Table S5, ITC, replicate 1); -8.3 kcal/mol (Table S5, ITC, replicate 2); -8,35 kcal mol^-1 under setting [9]; -8,421 kcal mol^-1 (Table S6, ITC, run 1); -8,278 kcal mol^-1 (Table S6, ITC, run 2). Also, the “ΔΔG to 1” value reads like this: under setting [4], 1.6 kcal/mol; under setting [5], 1.7 kcal/mol; under setting [6], 1.7 kcal/mol. The Kd is 764 nM under setting [7]; 6,72E-07 M (ITC, run 1); 8,56E-07 M (ITC, run 2). Further, the ΔH runs as follows: under setting [8], -4,81 kcal mol^-1; (Table S6, ITC, run 1) -4,976 kcal mol^-1; (Table S6, ITC, run 2) -4,649 kcal mol^-1. The “-TΔS” value under setting [9] is on record as -3,54 kcal mol^-1; the “-TΔS” value (Table S6, ITC, run 1) is -3,445 kcal mol^-1; the “-TΔS” value (Table S6, ITC, run 2) is -3,629 kcal mol^-1.
